Tested on: HMLER breast cancer populations
Test: Microarray gene expression / Gene Set Enrichment Analysis of HMLER cells after drug treatment versus DMSO control
Type: cell-based
Conditions: relative to DMSO control, GSEA; for collective expression level of the genes in Table 1 (EMT-associated genes) and subsets thereof upon treatment: FIGS. 2 and 5; for collective expression level of the genes in Table 2 (non-EMT-associated genes) and subsets thereof upon treatment: FIGS. 3 and 4
Method: The collective expression levels of the genes in Tables 1 and 2 after paclitaxel treatment were then determined. For these analyses, which are shown in FIGS. 2 and 3, collections of gene subsets of various sizes were chosen.
Next, identical analyses as those described above were performed in the context of treatment with a different anti-cancer agent—salinomycin—that was previously identified as specifically killing invasive cancer stem cells. The opposite expression change (relative to paclitaxel) was observed upon treatment with salinomycin. […] As a consequence, measurement of the expression of the genes in Table 1 (or any appropriate subsets thereof identified according to the methods disclosed herein) would serve to identify tumors that would be responsive to a CSS agent (e.g., salinomycin treatment) when applied as a single agent.

CC[C@@H](C(=O)[C@@H](C)[C@@H](O)[C@H](C)[C@@H]1O[C@@H]([C@@H](CC)C(=O)O)CC[C@@H]1C)[C@H]1O[C@]2(C=C[C@@H](O)[C@]3(CC[C@@](C)([C@H]4CC[C@](O)(CC)[C@H](C)O4)O3)O2)[C@H](C)C[C@@H]1C [salinomycin]
collective expression level of the genes in Table 1 (EMT-associated genes) and subsets thereof upon treatment: under-expressed | collective expression level of the genes in Table 2 (non-EMT-associated genes) and subsets thereof upon treatment: over-expressed

CC(=O)O[C@H]1C(=O)[C@@]2(C)[C@H]([C@H](OC(=O)c3ccccc3)[C@]3(O)C[C@H](OC(=O)[C@H](O)[C@@H](NC(=O)c4ccccc4)c4ccccc4)C(C)=C1C3(C)C)[C@]1(OC(C)=O)CO[C@@H]1C[C@@H]2O [paclitaxel]
collective expression level of the genes in Table 1 (EMT-associated genes) and subsets thereof upon treatment: over-expressed | collective expression level of the genes in Table 2 (non-EMT-associated genes) and subsets thereof upon treatment: under-expressed
